Measured values reported in ChEMBL document CHEMBL6134834, “Aromatic nitroolefin with inhibition efficacy in triple-negative breast cancer cells by dual targeting RXRα and tubulins” (Eur J Med Chem, 2025).

Test: Binding affinity to mouse brain tubulin assessed as dissociation constant by SPR analysis

Kd: 80.9 µM
Compound: O=[N+]([O-])CCc1cccc2ccccc12
